Measurements published in patent publication US9469653B2, “Pharmaceutical compositions for preventing or treating degenerative brain disease and method of screening the same” (KOREA INSTITUTE OF SCIENCE AND TECHNOLOGY, priority 2011, dated 2016).
Like-named read-outs stand apart in the source and are kept apart here.

Assays:
human MAO-B enzyme [1] = target: T1, human MAO-B enzyme (Homo sapiens (Human), UniProt P27338); experiment: Screening of MAO-B activity inhibition (Amplex Red monoamine oxidase assay kit, benzylamine substrate); type: biochemical
T1 sequence (P27338 whole entry): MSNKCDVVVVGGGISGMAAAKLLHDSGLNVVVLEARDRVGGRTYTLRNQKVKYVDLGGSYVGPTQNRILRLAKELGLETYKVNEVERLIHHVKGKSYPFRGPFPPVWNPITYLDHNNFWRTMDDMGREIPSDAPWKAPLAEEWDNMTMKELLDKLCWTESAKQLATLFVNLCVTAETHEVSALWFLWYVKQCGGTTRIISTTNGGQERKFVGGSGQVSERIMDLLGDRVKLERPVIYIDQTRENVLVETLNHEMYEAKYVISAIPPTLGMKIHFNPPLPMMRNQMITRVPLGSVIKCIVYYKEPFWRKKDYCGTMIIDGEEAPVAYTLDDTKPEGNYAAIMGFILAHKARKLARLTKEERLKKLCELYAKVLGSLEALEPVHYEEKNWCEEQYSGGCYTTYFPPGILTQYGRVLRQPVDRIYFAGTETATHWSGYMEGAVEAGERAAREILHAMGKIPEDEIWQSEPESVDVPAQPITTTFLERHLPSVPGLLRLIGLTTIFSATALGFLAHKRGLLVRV

human MAO-B enzyme [2] = target: T1, human MAO-B enzyme; experiment: as above; type: biochemical; conditions: 10 uM of the synthesized compound, pargyline-corrected
Protocol: A stock solution was prepared using a human MAO-B enzyme (purchased from Aldrich) and a Amplex® Red monoamine oxidase assay kit according to a preparation manual. The kit includes a 5× reaction buffer, an Amplex® red reagent (1 mg), HRP, DMSO, H2O2, p-tyramine (substrate of MAO-A, B), benzylamine (substrate of MAO-B), clorgiline (inhibitor of MAO-A), and pargyline (inhibitor of MAO-B). Among these reagents in the kit, benzylamine was used as a substrate for MAO-B, and pargyline was used as an MAO-B inhibitor. A solution as overall substrates was prepared as follows. 200 ul of a solution of 1 mg of Amplex® red sufficiently dissolved in 200 ul of DMSO, 100 ul of a mixed solution of HRP and 1 ml of a 1× buffer, 200 ul of a solution of benzylamine dissolved in 1.2 ml of dH2O were added to 9.5 ml of a 1× buffer to reach a total volume of 10 mL, which is sufficient for 100 wells. 0.5 ul of a mixture of MAO-B inhibitor pargyline and 1 ml of dH2O was put into each well. First, the activity of MAO-B was determined using 10 uM of the synthesized compound.
96 wells were injected with positive and negative types, and the wile type. The positive type included only substrate and hydrogen peroxide, and the negative type included only substrate. For the wild type, corresponding wells were injected with the enzyme, substrate, and MAO-B inhibitor, but with no synthesized compound. Afterward, 2 ul of the synthesized compound (1 mM) was added into each well, and the human MAO-B enzyme was put only into the 1st row of wells. 0.5 ug of the human MAO-B was put into each well along with 100 ul of a 1× buffer. The human MAO-B enzyme was put into the 2nd row of the wells along with 0.5 ul of a pargyline, the MAO-B inhibitor. To reduce an experimental error for accuracy, the test was repeated three times for each compound. After 30 minutes, 100 ul of the substrate solution was added into each well in a darkroom. The test was performed in the darkroom due to light sensitivity of the Amplex® reagent. Finally, a total volume of the reaction solution per well reached 200 ul. After about 2 to 3 hours, chromophoric degrees of the samples were measured. A variation in data values for the 1st and 2nd rows of the wells indicates the pure reaction activity of the MAO-B enzyme with the substrate. Using the samples with the synthesized compound the remaining activity of MAO-B after inhibited by the synthesized compound may be determined. This is because the activities of the other enzymes excluding the MAO-B enzyme may be excluded through this method. Compounds with high inhibitory activity at a concentration of 10 uM were screened from among the synthesized compounds at a compound concentration of 10 uM.

[3] = activity assay at 0.001, 0.01, 0.1, 1 and 10 uM

| Compound | IC50 (human MAO-B enzyme [1]; [3]) [µM] | Remaining activity of MAO-B (%) (human MAO-B enzyme [2]) | IC50 (human MAO-B enzyme [1]) [µM] |
| --- | --- | --- | --- |
| 2-fluorophenyl-5-(pyrrolidine-1-yl)oxazolo[5,4-b]pyridine [Example 5-34] | – | 8.4 | 8.7 |
| c1ccc(-c2nc3ccc(N4CCCCC4)nc3s2)cc1 [Example 5-38, 2-phenyl-5-(piperidine-1-yl)thiazolo[5,4-b]pyridine] | 8.3 | 1.8 | – |
| CNc1ccc2nc(-c3ccccc3)sc2n1 [Example 5-74, N-methyl-2-phenylthiazolo[5,4-b]pyridine-5-amine] | 15.7 | 27.2 | – |
| c1ccc(-c2nc3ccc(N4CCCC4)nc3s2)cc1 [Example 5-31, 2-phenyl-5-(pyrrolidine-1-yl)thiazolo[5,4-b]pyridine] | 7.3 | 1.7 | – |
| Fc1ccc(-c2nc3ccc(N4CCCCC4)nc3o2)cc1 [Example 5-45, 2-(4-fluorophenyl)-5-(piperidine-1-yl)oxazolo[5,4-b]pyridine] | 10.1 | 26.5 | – |

Further lines, with some results ahead:

| IC50 (human MAO-B enzyme [1]; [3]) [µM] | Remaining activity of MAO-B (%) (human MAO-B enzyme [2]) | Compound | IC50 (human MAO-B enzyme [1]) [µM] |
| --- | --- | --- | --- |
| 0.27 | 13.8 | Fc1cccc(-c2nc3ccc(N4CCCCC4)nc3o2)c1 [Example 5-40, 2-(3-fluorophenyl)-5-(piperidine-1-yl)oxazolo[5,4-b]pyridine] | – |
| 0.41 | 2.31 | c1ccc(-c2nc3ccc(N4CCCC4)nc3o2)cc1 [Example 5-30, 2-phenyl-5-(pyrrolidine-1-yl)oxazolo[5,4-b]pyridine] | – |
| 5.08 | 24.1 | CN(Cc1ccccc1)c1ccc2nc(-c3ccc(Cl)cc3)oc2n1 [Example 5-68, N-benzyl-2-(4-chlorophenyl)-N-methyloxazolo[5,4-b]pyridine-5-amine] | – |
| 1.52 | 15.8 | COc1ccc(-c2nc3ccc(N4CCCCC4)nc3o2)cc1 [Example 5-49, 2-(4-methoxyphenyl)-5-(piperidine-1-yl)oxazolo[5,4-b]pyridine] | – |
| 2.99 | 4.4 | CNc1ccc2nc(-c3cccc(Cl)c3)oc2n1 [Example 5-76, 2-(3-chlorophenyl)-N-methyloxazolo[5,4-b]pyridine-5-amine] | – |
